Source: ChEMBL document CHEMBL5029169, “Discovery and optimization of covalent EGFR T790M/L858R mutant inhibitors” (Bioorg Med Chem Lett, 2021)
The source made the active and inactive calls. No cut-off for these calls is given here.

Assays:
[1] = molecular target: T1, Epidermal growth factor receptor (Homo sapiens, UniProt P00533, L858R/T790M); assay: Inhibition of EGF-induced phosphorylation of EGFR T790M/L858R double mutant in human NCI-H1975 cells preincubated for 120 mins followed by EGF stimulation and measured after 10 mins by ELISA; type: cell-based
Homo sapiens = species: Homo sapiens; assay: Selectivity ratio of EC50 for inhibition of EGF-induced phosphorylation of wild type EGFR in human NCI-H1975 cells to EC50 for inhibition of EGF-induced phosphorylation of EGFR T790M/L858R double mutant in human NCI-H1975 cells preincubated for 120 mins followed by EGF stimulation and measured after 10 mins by ELISA; type: cell-based; settings: time 130.0 min
[2] = molecular target: T2, Epidermal growth factor receptor (Homo sapiens, UniProt P00533); assay: Inhibition of wild type EGFR (unknown origin) preincubated for 60 mins followed by substrate addition and further incubated for 60 mins in presence of ATP by IMAP-FP assay
[3] = molecular target: Casein kinase I isoform gamma-2 (Homo sapiens) (UniProt P78368); assay: Inhibition of CSNK1G2 (unknown origin) at 1 uM measured after 1 hr relative to control
[4] = Oral bioavailability in mouse; type: ADME, organism-based; settings: in vivo
[5] = molecular target: Serine/threonine-protein kinase B-raf (Homo sapiens) (UniProt P15056); assay: Inhibition of BRAF (unknown origin) at 1 uM measured after 1 hr relative to control
[6] = molecular target: Serine/threonine-protein kinase PLK2 (Homo sapiens) (UniProt Q9NYY3); assay: Inhibition of PLK2 (unknown origin) at 1 uM measured after 1 hr relative to control
[7] = molecular target: Dual specificity tyrosine-phosphorylation-regulated kinase 1A (Homo sapiens) (UniProt Q13627); assay: Inhibition of DYRK1A (unknown origin) at 1 uM measured after 1 hr relative to control
[8] = molecular target: Mitogen-activated protein kinase 8 (Homo sapiens) (UniProt P45983); assay: Inhibition of MAPK8 (unknown origin) at 1 uM measured after 1 hr relative to control
[9] = molecular target: Serine/threonine-protein kinase Chk2 (Homo sapiens) (UniProt O96017); assay: Inhibition of CHEK2 (unknown origin) at 1 uM measured after 1 hr relative to control
[10] = molecular target: T1, Epidermal growth factor receptor; assay: Inhibition of EGFR T790M/L858R double mutant (unknown origin) preincubated for 60 mins followed by substrate addition and further incubated for 60 mins in presence of ATP by IMAP-FP assay
[11] = molecular target: T3, Serine/threonine-protein kinase BRSK1 (Homo sapiens) (UniProt Q8TDC3); assay: Inhibition of BRSK1 (unknown origin) at 1 uM measured after 1 hr relative to control
T3 sequence (whole entry): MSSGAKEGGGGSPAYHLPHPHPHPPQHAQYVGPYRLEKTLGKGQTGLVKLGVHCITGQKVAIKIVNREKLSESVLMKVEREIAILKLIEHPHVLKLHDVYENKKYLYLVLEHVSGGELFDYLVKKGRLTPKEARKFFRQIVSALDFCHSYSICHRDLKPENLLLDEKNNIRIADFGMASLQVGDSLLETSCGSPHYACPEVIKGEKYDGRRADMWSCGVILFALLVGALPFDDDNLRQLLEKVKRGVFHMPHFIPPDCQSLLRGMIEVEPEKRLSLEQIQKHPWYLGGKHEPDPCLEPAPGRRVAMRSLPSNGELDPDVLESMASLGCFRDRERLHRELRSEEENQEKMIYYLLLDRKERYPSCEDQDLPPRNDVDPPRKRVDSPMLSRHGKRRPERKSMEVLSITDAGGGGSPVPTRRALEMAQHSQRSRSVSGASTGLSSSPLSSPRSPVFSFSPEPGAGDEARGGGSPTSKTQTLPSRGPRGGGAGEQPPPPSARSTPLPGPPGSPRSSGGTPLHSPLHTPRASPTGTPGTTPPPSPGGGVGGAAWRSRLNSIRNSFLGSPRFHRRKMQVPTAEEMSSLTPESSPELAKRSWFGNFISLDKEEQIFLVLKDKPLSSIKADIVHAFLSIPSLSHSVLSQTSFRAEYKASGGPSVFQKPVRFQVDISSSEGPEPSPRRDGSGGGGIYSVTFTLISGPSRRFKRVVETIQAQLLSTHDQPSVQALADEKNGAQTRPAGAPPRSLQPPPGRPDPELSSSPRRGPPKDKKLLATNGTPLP

[12] = molecular target: Glycogen synthase kinase-3 beta (Homo sapiens) (UniProt P49841); assay: Inhibition of GSK3B (unknown origin) at 1 uM measured after 1 hr relative to control
[13] = molecular target: Mitogen-activated protein kinase kinase kinase kinase 4 (Homo sapiens) (UniProt O95819); assay: Inhibition of MAP4K4 (unknown origin) at 1 uM measured after 1 hr relative to control
[14] = molecular target: T2, Epidermal growth factor receptor; assay: Inhibition of EGF-induced phosphorylation of wild type EGFR in human NCI-H1975 cells preincubated for 120 mins followed by EGF stimulation and measured after 10 mins by ELISA; type: cell-based
[15] = molecular target: Cyclin-dependent kinase 1/cyclin B1 (Homo sapiens) (UniProt P06493+P14635); assay: Inhibition of cdk1/Cyclin B (unknown origin) at 1 uM measured after 1 hr relative to control; type: protein-complex assay
[16] = molecular target: Protein kinase C alpha type (Homo sapiens) (UniProt P17252); assay: Inhibition of PRKCA (unknown origin) at 1 uM measured after 1 hr relative to control
[17] = molecular target: Receptor-type tyrosine-protein kinase FLT3 (Homo sapiens) (UniProt P36888); assay: Inhibition of FLT3 (unknown origin) at 1 uM measured after 1 hr relative to control
[18] = molecular target: Mitogen-activated protein kinase 3 (Homo sapiens) (UniProt P27361); assay: Inhibition of MAPK3 (unknown origin) at 1 uM measured after 1 hr relative to control
[19] = molecular target: Insulin-like growth factor 1 receptor (Homo sapiens) (UniProt P08069); assay: Inhibition of IGF1R (unknown origin) at 1 uM measured after 1 hr relative to control
[20] = molecular target: Mitogen-activated protein kinase kinase kinase 9 (Homo sapiens) (UniProt P80192); assay: Inhibition of MAP3K9 (unknown origin) at 1 uM measured after 1 hr relative to control
[21] = molecular target: Dual specificity mitogen-activated protein kinase kinase 1 (Homo sapiens) (UniProt Q02750); assay: Inhibition of MAP2K1 (unknown origin) at 1 uM measured after 1 hr relative to control
[22] = Toxicity in mouse xenografted with human NCI-H1975 cells assessed as change in body weight at 30 mg/kg, po administered bid measured after 11 days; type: organism-based; settings: in vivo, 264 h, time 11 day
NCI-H1975 [23] = assay: Antitumor activity against human NCI-H1975 cells xenografted in mouse model assessed as tumor growth inhibition at 30 mg/kg, po administered qd measured after 11 days; type: functional, organism-based; settings: time 11.0 day
NCI-H1975 [24] = assay: Antitumor activity against human NCI-H1975 cells xenografted in mouse model assessed as tumor growth inhibition at 30 mg/kg, po administered bid measured after 11 days relative to control; type: functional; settings: 264 h, time 11 day, read-out: TGI
[25] = Inhibition of EGF-induced phosphorylation of EGFR T790M/L858R double mutant in human NCI-H1975 cells preincubated for 2 hrs followed by EGF stimulation and measured after 10 mins by ELISA; type: cell-based

Sequence of Mitogen-activated protein kinase 8 (Homo sapiens) (P45983 whole entry): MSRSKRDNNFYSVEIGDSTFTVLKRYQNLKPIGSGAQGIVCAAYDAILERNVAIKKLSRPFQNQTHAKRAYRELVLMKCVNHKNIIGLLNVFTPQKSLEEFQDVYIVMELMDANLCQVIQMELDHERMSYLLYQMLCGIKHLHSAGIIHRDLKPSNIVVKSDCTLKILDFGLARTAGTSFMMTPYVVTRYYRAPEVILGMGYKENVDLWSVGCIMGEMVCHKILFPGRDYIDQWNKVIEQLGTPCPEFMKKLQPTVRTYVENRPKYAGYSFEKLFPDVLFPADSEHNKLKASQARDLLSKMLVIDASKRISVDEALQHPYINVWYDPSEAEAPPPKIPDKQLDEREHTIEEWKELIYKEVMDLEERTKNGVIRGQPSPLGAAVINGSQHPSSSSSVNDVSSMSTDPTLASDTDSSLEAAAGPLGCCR
Sequence of Casein kinase I isoform gamma-2 (Homo sapiens) (P78368 whole entry, looked up, canonical isoform): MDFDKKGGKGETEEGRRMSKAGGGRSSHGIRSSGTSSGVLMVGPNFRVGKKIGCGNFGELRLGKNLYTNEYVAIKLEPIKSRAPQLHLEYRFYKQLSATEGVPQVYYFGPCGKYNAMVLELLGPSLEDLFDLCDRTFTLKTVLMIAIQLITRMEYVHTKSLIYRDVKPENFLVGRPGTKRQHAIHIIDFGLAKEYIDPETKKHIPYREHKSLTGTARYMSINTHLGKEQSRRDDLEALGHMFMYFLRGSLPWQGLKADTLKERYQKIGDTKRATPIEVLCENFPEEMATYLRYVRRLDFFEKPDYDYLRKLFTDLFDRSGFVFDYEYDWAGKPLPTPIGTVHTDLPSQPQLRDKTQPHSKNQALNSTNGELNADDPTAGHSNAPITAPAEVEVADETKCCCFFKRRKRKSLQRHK
T1 sequence (P00533 25-1210 T790M/L858R limits assumed): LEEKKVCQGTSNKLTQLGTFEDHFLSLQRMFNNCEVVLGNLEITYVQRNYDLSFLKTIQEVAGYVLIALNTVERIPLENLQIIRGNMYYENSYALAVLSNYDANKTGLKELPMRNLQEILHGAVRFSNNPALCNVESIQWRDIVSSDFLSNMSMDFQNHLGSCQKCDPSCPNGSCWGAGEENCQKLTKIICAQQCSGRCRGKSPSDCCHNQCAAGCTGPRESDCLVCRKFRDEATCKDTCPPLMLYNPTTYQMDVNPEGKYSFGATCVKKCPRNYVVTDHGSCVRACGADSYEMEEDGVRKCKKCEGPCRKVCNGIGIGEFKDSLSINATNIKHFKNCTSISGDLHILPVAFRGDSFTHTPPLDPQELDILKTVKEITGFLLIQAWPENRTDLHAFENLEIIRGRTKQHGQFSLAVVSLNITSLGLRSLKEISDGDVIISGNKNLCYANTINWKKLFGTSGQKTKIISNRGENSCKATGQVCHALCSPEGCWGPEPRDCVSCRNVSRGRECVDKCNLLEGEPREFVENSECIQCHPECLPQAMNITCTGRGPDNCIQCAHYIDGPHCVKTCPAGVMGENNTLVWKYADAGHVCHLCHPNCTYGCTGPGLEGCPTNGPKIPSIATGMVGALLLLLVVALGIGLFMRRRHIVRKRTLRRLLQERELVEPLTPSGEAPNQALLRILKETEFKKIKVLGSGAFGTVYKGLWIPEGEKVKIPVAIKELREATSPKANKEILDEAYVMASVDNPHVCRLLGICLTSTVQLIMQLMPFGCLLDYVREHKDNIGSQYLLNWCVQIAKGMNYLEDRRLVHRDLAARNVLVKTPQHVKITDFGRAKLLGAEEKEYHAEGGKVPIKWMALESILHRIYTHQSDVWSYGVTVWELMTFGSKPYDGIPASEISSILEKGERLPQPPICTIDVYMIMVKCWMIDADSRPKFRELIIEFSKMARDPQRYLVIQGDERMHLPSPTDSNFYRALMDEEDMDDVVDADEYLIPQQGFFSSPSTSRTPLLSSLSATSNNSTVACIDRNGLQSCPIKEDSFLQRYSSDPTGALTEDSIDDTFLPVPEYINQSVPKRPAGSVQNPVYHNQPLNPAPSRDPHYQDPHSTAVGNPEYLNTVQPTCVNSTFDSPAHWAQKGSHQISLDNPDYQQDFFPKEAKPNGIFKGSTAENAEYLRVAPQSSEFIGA
Sequence of Serine/threonine-protein kinase PLK2 (Homo sapiens) (Q9NYY3 whole entry, looked up): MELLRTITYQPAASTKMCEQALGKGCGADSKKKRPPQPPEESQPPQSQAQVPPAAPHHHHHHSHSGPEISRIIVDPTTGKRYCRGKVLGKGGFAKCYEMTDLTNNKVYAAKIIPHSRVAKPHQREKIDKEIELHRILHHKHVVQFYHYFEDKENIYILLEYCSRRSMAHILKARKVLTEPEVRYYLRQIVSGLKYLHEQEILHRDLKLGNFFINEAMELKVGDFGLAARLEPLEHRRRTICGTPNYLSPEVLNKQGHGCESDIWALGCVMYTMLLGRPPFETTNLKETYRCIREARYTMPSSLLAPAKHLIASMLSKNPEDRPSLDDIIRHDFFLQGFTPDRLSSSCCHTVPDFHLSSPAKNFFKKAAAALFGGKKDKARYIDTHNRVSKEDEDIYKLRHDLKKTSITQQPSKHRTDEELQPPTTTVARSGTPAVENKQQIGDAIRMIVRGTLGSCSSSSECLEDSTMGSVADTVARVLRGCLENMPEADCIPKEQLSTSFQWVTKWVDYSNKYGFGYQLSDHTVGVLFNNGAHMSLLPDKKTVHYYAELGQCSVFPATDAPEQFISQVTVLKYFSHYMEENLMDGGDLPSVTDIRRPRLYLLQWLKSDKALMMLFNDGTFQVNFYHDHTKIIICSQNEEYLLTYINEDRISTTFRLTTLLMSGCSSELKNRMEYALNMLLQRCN
Sequence of Dual specificity mitogen-activated protein kinase kinase 1 (Homo sapiens) (Q02750 whole entry): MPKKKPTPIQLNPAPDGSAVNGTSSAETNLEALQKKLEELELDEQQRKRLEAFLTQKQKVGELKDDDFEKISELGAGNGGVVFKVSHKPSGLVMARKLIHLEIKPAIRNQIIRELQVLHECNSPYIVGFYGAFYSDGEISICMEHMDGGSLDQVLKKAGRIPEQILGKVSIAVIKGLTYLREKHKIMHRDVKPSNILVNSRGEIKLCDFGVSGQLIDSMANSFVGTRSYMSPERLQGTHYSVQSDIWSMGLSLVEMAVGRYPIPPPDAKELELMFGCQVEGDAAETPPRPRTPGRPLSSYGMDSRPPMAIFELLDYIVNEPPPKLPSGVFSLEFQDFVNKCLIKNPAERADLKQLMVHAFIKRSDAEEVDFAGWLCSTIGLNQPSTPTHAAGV
Sequence of Serine/threonine-protein kinase B-raf (Homo sapiens) (P15056 whole entry): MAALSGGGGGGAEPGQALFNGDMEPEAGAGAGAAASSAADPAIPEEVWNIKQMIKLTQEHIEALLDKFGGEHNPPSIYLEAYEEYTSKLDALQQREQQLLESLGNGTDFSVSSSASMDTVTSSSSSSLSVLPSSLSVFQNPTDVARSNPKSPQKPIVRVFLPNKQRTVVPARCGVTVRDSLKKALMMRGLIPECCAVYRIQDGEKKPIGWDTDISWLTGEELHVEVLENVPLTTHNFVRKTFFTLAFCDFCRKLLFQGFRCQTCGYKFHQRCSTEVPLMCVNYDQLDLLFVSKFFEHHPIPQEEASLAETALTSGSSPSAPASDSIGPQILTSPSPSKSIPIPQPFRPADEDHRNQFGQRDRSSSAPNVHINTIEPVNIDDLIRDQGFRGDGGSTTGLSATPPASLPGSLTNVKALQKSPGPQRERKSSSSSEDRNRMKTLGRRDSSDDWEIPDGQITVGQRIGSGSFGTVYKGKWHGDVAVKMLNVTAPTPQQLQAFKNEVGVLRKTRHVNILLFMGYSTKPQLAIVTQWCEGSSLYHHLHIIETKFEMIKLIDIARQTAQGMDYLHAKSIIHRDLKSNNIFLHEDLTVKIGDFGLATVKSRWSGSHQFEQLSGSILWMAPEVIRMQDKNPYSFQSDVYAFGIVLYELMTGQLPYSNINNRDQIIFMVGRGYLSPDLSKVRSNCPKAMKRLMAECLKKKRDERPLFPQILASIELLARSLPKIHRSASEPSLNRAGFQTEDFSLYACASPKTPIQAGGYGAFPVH
Sequence of Glycogen synthase kinase-3 beta (Homo sapiens) (P49841 whole entry, looked up): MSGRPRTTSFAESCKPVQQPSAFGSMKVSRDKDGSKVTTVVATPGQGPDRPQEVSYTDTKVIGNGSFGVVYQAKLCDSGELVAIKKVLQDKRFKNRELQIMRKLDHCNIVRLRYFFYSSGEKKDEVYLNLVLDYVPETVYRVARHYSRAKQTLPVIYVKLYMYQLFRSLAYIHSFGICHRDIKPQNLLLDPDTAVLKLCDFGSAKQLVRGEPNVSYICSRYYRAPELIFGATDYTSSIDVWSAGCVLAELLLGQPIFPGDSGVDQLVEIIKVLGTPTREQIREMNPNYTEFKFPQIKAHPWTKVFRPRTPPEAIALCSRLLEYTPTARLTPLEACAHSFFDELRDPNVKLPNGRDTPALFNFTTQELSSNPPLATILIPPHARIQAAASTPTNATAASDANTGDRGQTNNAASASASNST
Sequence of Mitogen-activated protein kinase 3 (Homo sapiens) (P27361 whole entry): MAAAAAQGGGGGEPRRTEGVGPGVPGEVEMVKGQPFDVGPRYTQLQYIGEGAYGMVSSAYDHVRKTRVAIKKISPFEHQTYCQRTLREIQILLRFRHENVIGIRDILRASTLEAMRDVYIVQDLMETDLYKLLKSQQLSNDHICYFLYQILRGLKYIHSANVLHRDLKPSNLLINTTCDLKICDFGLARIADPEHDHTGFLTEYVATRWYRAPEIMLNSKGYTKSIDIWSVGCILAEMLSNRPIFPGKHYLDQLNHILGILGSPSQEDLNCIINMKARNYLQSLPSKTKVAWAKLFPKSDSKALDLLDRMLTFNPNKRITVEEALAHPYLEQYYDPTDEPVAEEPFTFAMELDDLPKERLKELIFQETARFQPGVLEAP

| SMILES | EC50 [1] [nM] | Ratio EC50 (Homo sapiens) | IC50 [2] [nM] | inhibition [3] [%] | inhibition [5] [%] | inhibition [6] [%] | inhibition [7] [%] | inhibition [8] [%] | inhibition [9] [%] | IC50 [10] [nM] | inhibition [11] [%] | inhibition [12] [%] | inhibition [13] [%] | inhibition [15] [%] | inhibition [16] [%] | inhibition [17] [%] | inhibition [18] [%] | inhibition [19] [%] | inhibition [20] [%] | inhibition [21] [%] | other results |
| --- | --- | --- | --- | --- | --- | --- | --- | --- | --- | --- | --- | --- | --- | --- | --- | --- | --- | --- | --- | --- | --- |
| C=CC(=O)N1CCC2(CC1)CNC(=O)c1cc(-c3ccnc(Nc4ccccc4OC)n3)[nH]c12 | 40 | 7.7 | 0.4 | 81 | 83 | 79 | 73 | 80 | 99 | 0.9 | 18 | 85 | 91 | 71 | 30 | 85 | 69 | 3 | 75 | 72 | bioavailability [4]: 3.2%; EC50 [14]: 308 nM |
| CC#CC(=O)Nc1cccc(-c2nccc(-c3cc4c([nH]3)C3(CCNCC3)CNC4=O)n2)c1 | – | – | – | – | – | – | – | – | – | 499 | – | – | – | – | – | – | – | – | – | – | – |
| C=CC(=O)N1CCC2(CC1)CNC(=O)c1cc(-c3ccnc(Nc4ccccc4OC(C)C)n3)[nH]c12 | 8.8 | 64 | 1.2 | 88 | 34 | 12 | 70 | 50 | 100 | 1.3 | 4 | 88 | 32 | 8 | 5 | 22 | 40 | 14 | 38 | 48 | bioavailability [4]: 11%; Activity [22]: Non-Toxic; Activity (NCI-H1975 [23]): Active; EC50 [14]: 562 nM; inhibition in vivo at 30 mg/kg (NCI-H1975 [24]): 60% |
| C=CC(=O)N1CCC2(CC1)CNC(=O)c1cc(-c3nc(Nc4ccccc4OC)ncc3Cl)[nH]c12 | 3.1 | 89 | 0.9 | – | – | – | – | – | – | 0.8 | – | – | – | – | – | – | – | – | – | – | EC50 [14]: 277 nM |
| C=CC(=O)N1CCC2(CC1)CNC(=O)c1cc(-c3ccnc(Nc4ccccc4OC)c3)[nH]c12 | > 10000 | – | 192 | 79 | 75 | 7 | 46 | 87 | 100 | 37 | 18 | 34 | 80 | 12 | 14 | 16 | 81 | 0 | 1 | 80 | – |
| C=CC(=O)N1CCC2(CC1)CNC(=O)c1cc(-c3ccnc(-c4ccc5c(c4)OCO5)n3)[nH]c12 | – | – | 43 | – | – | – | – | – | – | 6.5 | – | – | – | – | – | – | – | – | – | – | – |
| C=CC(=O)N1CCC2(CC1)CNC(=O)c1cc(-c3nc(Nc4ccccc4OC)ncc3C)[nH]c12 | 12 | 14 | 1.4 | 92 | 98 | 86 | 98 | 85 | 96 | 1.2 | 0 | 99 | 89 | 89 | 61 | 100 | 90 | 69 | 98 | 98 | bioavailability [4]: 87%; EC50 [14]: 165 nM |
| C=CC(=O)N1CCC2(CC1)CNC(=O)c1cc(-c3ccnc(-c4cccc(OC)c4)n3)[nH]c12 | 2550 | – | 32 | – | – | – | – | – | – | 9.6 | – | – | – | – | – | – | – | – | – | – | – |
| C=CC(=O)Nc1cc(Nc2nccc(-c3cn(C)c4ccccc34)n2)c(OC)cc1N(C)CCN(C)C [OSIMERTINIB] | – | – | – | 5 | 6 | 0 | 0 | 0 | 0 | – | 7 | 12 | 78 | 5 | 4 | 57 | 0 | 31 | 71 | 0 | bioavailability [4]: 45%; EC50 [25]: 15 nM |
| COc1ccccc1Nc1nccc(-c2cc3c([nH]2)C2(CCN(C(=O)C#CN(C)C)CC2)CNC3=O)n1 | 2180 | – | 5.3 | – | – | – | – | – | – | 2.8 | – | – | – | – | – | – | – | – | – | – | – |
